Common to all, as to assay type: cell-based
One assay concerns the target T1, EGFR del (PC9) (Homo sapiens, UniProt P00533, DEL746-750).
T1 construct: detects endogenous levels of phospho-EGF Receptor (Tyr1068) protein; host or cells: PC9
Nature of the assay: pEGFR Y1068 ELISA assay, PC9 cells. To be noted: inhibition of phosphorylation of EGFR at Tyr1068; PC9 NSCLC cells; 2 hr compound incubation.

The target of the next assay is T2, EGFR L858R (NCI-H3255) (Homo sapiens, UniProt P00533, L858R).
T2 construct: detects endogenous levels of phospho-EGF Receptor (Tyr1068) protein; host or cells: NCI-H3255
Nature of the assay: pEGFR Y1068 ELISA assay, NCI-H3255 cells. On the technique in general: In an ELISA, binding on a coated surface is turned into a signal by an enzyme label.

Assay [1] has as its target T3, EGFR L858R+T790M, endogenous (NCI-H1975) (Homo sapiens, UniProt P00533, L858R/T790M).
T3 construct: NCI-H1975 (EGFR L858R+T790M, endogenous); host or cells: NCI-H1975
Nature of the assay: pEGFR Y1068 ELISA assay, NCI-H1975 cells. To be noted: inhibition of phosphorylation of EGFR at Tyr1068; NCI-H1975 NSCLC cells; 2 hr compound incubation.

Assay [2] concerns the target T4, EGFR wildtype, endogenous (A549) (Homo sapiens, UniProt P00533).
T4 construct: A549 (EGFR wildtype, endogenous); host or cells: A549 (stimulated with EGF)
The assay is described as follows: pEGFR Y1068 ELISA assay, A549 cells. To be noted: inhibition of phosphorylation of EGFR at Tyr1068; A549 NSCLC cells; 2 hr compound incubation, then stimulated 10 min with EGF (40 ng/mL).

The target of a further assay is T5, EGFR del/T790M (PC9-DRH) (Homo sapiens, UniProt P00533, DEL746-750/T790M).
T5 construct: detects endogenous levels of phospho-EGF Receptor (Tyr1068) protein; endogenous in cells; host or cells: PC9-DRH (dacomitinib-resistant derivative of PC9, generated in house)
The assay is described as follows: pEGFR Y1068 ELISA assay, PC9-DRH cells. To be noted: inhibition of phosphorylation of EGFR at Tyr1068; PC9-DRH cells (dacomitinib resistant); 2 hr compound incubation.

Setting [3] is: inhibition of phosphorylation of EGFR at Tyr1068, NCI-H3255 NSCLC cells, 2 hr compound incubation.

Results on 15 compounds are retold here after patent US9290496B2, “Purine derivatives” (PFIZER INC., priority 2013, dated 2016).

SMILES strings stand for the structures. Read-outs that look alike come from different tables or passages of the source.

T4 sequence (P00533 25-1210): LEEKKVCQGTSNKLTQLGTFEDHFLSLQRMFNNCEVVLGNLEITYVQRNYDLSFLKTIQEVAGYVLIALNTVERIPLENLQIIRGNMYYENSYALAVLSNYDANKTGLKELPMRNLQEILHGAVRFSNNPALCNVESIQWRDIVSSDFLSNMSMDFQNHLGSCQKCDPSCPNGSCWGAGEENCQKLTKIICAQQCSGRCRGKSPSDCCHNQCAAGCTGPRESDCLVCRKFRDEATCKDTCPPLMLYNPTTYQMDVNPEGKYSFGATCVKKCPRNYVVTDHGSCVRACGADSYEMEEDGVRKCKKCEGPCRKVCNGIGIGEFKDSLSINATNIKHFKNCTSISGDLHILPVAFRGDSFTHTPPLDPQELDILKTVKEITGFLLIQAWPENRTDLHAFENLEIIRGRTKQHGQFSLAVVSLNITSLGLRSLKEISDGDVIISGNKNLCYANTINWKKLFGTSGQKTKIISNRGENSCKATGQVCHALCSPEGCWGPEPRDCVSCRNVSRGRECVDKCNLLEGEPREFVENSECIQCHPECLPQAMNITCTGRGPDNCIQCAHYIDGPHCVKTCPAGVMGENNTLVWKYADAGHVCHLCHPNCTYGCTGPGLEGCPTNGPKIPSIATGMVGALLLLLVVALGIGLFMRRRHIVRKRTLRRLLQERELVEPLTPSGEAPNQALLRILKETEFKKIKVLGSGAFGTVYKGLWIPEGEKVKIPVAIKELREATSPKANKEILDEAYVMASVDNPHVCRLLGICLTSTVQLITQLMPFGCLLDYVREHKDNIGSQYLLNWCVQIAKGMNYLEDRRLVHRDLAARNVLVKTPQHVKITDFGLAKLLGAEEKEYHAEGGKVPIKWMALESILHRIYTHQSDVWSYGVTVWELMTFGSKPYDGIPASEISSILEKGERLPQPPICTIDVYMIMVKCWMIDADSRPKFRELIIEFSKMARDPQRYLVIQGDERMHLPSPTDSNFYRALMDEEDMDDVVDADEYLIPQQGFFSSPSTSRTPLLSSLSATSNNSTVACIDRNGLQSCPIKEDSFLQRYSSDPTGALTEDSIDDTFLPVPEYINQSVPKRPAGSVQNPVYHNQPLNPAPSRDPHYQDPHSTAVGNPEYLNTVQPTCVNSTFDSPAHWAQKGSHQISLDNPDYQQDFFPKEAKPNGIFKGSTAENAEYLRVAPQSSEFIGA
T5 sequence (P00533 with tags, fused parts or gaps DEL746-750/T790M): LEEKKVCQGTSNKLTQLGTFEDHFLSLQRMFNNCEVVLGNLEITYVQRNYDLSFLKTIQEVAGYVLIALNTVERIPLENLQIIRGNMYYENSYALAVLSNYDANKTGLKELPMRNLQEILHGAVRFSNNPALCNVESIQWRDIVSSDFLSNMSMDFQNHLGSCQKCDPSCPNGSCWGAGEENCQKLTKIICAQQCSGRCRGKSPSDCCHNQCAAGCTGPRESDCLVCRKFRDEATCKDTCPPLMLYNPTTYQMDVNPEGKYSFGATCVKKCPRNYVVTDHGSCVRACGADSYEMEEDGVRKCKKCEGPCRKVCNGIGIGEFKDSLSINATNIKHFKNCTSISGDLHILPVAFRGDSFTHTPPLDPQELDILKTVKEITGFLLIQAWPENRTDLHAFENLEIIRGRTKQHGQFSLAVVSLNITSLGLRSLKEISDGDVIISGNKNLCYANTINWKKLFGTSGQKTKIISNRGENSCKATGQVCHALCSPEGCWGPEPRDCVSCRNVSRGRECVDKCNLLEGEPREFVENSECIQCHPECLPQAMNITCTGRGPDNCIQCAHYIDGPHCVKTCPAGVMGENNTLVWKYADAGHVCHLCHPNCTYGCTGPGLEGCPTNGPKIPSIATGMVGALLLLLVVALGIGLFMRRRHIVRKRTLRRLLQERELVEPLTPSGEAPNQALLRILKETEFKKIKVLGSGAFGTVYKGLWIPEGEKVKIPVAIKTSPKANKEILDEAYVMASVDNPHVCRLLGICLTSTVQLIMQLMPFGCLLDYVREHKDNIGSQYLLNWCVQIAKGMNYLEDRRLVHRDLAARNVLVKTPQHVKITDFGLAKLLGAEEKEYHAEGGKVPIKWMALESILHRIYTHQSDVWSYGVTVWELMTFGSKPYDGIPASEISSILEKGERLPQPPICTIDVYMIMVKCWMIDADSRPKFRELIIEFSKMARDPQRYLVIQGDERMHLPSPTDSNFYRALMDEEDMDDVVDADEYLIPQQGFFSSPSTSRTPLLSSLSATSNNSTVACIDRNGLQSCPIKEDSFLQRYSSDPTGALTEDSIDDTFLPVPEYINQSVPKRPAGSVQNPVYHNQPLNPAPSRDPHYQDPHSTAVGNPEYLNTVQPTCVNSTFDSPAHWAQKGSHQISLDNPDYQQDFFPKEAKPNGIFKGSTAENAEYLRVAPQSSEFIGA
T2 sequence (P00533 25-1210 L858R): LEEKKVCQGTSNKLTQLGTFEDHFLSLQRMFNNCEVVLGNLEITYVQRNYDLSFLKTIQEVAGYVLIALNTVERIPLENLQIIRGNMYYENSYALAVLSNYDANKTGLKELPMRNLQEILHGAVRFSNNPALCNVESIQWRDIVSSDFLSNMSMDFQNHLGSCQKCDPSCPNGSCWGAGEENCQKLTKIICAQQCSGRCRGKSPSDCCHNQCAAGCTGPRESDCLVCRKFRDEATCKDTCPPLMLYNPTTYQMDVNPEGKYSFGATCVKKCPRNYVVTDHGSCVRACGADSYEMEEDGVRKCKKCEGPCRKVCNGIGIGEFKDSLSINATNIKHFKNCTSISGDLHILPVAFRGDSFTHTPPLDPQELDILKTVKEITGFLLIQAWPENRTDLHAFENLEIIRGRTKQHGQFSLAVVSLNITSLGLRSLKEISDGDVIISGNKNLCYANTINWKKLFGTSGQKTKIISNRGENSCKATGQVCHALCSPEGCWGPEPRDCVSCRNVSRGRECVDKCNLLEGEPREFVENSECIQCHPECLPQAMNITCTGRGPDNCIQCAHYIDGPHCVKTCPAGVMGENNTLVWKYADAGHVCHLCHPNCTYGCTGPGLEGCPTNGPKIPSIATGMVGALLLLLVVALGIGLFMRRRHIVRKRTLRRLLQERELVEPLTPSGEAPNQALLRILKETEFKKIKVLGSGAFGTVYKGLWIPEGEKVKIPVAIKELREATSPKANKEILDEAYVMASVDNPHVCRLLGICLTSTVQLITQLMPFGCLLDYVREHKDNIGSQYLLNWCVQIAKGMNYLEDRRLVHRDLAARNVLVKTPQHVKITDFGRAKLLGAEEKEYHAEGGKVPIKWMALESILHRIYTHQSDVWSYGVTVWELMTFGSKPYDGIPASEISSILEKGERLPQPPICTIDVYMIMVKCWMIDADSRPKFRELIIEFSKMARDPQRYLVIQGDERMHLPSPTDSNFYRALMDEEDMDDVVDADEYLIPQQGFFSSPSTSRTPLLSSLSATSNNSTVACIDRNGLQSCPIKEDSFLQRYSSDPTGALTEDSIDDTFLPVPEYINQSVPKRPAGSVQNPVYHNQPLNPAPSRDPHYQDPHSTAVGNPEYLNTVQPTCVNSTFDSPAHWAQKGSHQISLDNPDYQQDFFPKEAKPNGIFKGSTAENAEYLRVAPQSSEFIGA
T1 sequence (P00533 with tags, fused parts or gaps DEL746-750): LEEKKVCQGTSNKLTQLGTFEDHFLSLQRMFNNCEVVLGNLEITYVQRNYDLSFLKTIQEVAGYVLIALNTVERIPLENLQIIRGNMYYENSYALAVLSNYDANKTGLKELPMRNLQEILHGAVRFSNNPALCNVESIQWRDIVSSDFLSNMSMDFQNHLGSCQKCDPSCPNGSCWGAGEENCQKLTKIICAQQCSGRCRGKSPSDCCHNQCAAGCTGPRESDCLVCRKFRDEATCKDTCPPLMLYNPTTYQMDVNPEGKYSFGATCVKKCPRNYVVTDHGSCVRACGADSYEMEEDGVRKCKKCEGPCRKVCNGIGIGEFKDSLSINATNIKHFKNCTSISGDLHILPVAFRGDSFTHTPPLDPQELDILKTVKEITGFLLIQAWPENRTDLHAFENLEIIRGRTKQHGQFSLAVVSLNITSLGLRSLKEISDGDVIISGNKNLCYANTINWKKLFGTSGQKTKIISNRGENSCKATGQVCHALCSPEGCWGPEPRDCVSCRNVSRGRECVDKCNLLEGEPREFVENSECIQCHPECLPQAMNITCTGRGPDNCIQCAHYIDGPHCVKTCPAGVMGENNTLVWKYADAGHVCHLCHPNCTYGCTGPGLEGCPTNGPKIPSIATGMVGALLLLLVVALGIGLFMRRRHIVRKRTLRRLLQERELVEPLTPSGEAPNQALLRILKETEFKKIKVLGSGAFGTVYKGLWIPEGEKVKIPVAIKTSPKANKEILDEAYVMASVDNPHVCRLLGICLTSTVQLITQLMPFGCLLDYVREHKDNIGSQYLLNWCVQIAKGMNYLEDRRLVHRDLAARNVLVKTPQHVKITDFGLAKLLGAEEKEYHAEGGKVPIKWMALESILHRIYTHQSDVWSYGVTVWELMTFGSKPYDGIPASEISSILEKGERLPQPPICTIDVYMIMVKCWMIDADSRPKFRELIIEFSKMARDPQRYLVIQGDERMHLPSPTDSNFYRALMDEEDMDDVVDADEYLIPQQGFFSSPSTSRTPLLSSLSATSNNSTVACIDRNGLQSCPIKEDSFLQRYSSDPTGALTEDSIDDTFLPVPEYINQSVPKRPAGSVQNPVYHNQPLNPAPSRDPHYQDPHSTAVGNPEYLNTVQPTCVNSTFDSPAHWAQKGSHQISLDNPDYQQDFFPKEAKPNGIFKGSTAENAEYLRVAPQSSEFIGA

Consider `C=CC(=O)N[C@@H]1CN(c2nc(Nc3cnn(C)c3)c3ncn(C(C)C)c3n2)C[C@@H]1OC` (single isomer, unassigned) [Example 50, N-((cis*)-1-(9-isopropyl-6((1-methyl-1H-pyrazol-4-yl)amino)-9H-purin-2-yl)-4-methoxypyrrolidin-3-yl)acrylamide], for which the IC50 against EGFR del (PC9) came to 8 nM; against EGFR L858R (NCI-H3255), 3 nM; in assay [1] it was 26 nM; in assay [2], 587 nM; against EGFR del/T790M (PC9-DRH), 34 nM.

For `C=CC(=O)N[C@@H]1CN(c2nc(Nc3cnn(C)c3)c3ncn(C(C)(C)C)c3n2)CC1F` (stereo in doubt) [Example 49, N-((3R,4S)-1-(9-(tert-butyl)-6-((1-methyl-1H-pyrazol-4-yl)amino)-9H-purin-2-yl)-4-fluoropyrrolidin-3-yl)acrylamide], the IC50 is 8 nM on EGFR del (PC9); 3 nM on EGFR L858R (NCI-H3255); 21 nM in assay [1]; 787 nM in assay [2]; 2 nM at EGFR del/T790M (PC9-DRH).

As to `C=CC(=O)N[C@H]1CCN(c2nc(Nc3ccc(N4CCN(C)CC4)cc3)c3ncn(C(C)C)c3n2)C1` [Example 1, (S)-N-(1-(9-isopropyl-6-((4-(4-methylpiperazin-1-yl)phenyl)amino)-9H-purin-2-yl)pyrrolidin-3-yl)acrylamide], the IC50 on EGFR del (PC9) came to 22 nM; at EGFR L858R (NCI-H3255) it was 19 nM; in assay [1], 19 nM; in assay [2] it was 277 nM; against EGFR del/T790M (PC9-DRH), 18 nM.

With `C=CC(=O)N[C@H]1CCN(c2nc(Nc3cnn(C)c3)c3ncn(C(C)C)c3n2)C1` [Example 4, (S)-N-(1-(9-isopropyl-6-((1-methyl-1H-pyrazol-4-yl)amino)-9H-purin-2-yl)pyrrolidin-3-yl)acrylamide], the IC50 is 52 nM against EGFR del (PC9), 59 nM against EGFR L858R (NCI-H3255), 52 nM in assay [1] and 652 nM in assay [2].

In the case of `C=CC(=O)NC1(C)CN(c2nc(Nc3cnn(C)c3)c3ncn(C(C)C)c3n2)C1` [Example 13, N-(1-(9-isopropyl-6((1-methyl-1H-pyrazol-4-yl)amino)-9H-purin-2-yl)-3-methylazetidin-3-yl)acrylamide], the IC50 at EGFR del (PC9) came to 40 nM; against EGFR L858R (NCI-H3255), 80 nM; in assay [1], 40 nM; in assay [2] it was 2440 nM; on EGFR del/T790M (PC9-DRH) it was 25 nM.

Turning to `C=CC(=O)N1C[C@@H]2CN(c3nc(Nc4ccc(N5CCN(C)CC5)cc4)c4ncn(C(C)C)c4n3)C[C@@H]2C1` [Example 21, 1-((cis)-5-(9-isopropyl-6-((4-(4-methylpiperazin-1-yl)phenyl)amino)-9H-purin-2-yl)hexahydropyrrolo[3,4-c]pyrrol-2(1H)-yl)prop-2-en-1-one], the IC50 against EGFR del (PC9) stood at 8 nM; on EGFR L858R (NCI-H3255) (setting [3]) it was 8 nM; in assay [1] it was 14 nM; in assay [2], 181 nM; at EGFR del/T790M (PC9-DRH), 18 nM.

As for `C=CC(=O)N(C)[C@H]1C[C@H](Oc2nc(Nc3ccc(N4CCN(C)CC4)cc3)c3ncn(C(C)C)c3n2)C1` [Example 29, N-((trans)-3-((9-isopropyl-6-((4-(4-methylpiperazin-1-yl)phenyl)amino)-9H-purin-2-yl)oxy)cyclobutyl)-N-methylacrylamide], the IC50 at EGFR del (PC9) worked out at 40 nM; against EGFR L858R (NCI-H3255), 35 nM; in assay [1], 35 nM; in assay [2], 698 nM; at EGFR del/T790M (PC9-DRH) it was 61 nM.

As for `C=CC(=O)N[C@H]1CCN(c2nc(Nc3cnn(C4CCN(C)CC4)c3)c3ncn(C(C)C)c3n2)C1` [Example 41, (S)-N-(1-(9-isopropyl-6-((1-(1-methylpiperidin-4-yl)-1H-pyrazol-4-yl)amino)-9H -purin-2-yl)pyrrolidin-3-yl)acrylamide], the IC50 against EGFR del (PC9) is 38 nM; against EGFR L858R (NCI-H3255) it was 9 nM; in assay [1], 64 nM; in assay [2], 3040 nM; at EGFR del/T790M (PC9-DRH), 3 nM.

`C=CC(=O)N[C@H]1CCN(c2nc(Nc3ccc(N4CCN(C)CC4)cc3)c3ncn(CCO)c3n2)C1` [Example 46, (S)-N-(1-(9-(2-hydroxyethyl)-6-((4-(4-methylpiperazin-1-yl)phenyl)amino)-9H -purin-2-yl)pyrrolidin-3-yl)acrylamide]: the IC50 on EGFR del (PC9) is 31 nM; against EGFR L858R (NCI-H3255) (setting [3]) it was 7 nM; in assay [1], 387 nM; in assay [2], 4190 nM.

In the case of `C=CC(=O)N[C@@H]1CN(c2nc(Nc3cn(C4CCN(C)C4)nc3C)c3ncn(C(C)C)c3n2)C[C@H]1F` (stereo partly drawn) [Example 55, N-((3R,4R)-4-fluoro-1-(9-isopropyl-6-((3-methyl-1-(1-methylpyrrolidin-3-yl)-1H -pyrazol-4-yl)amino)-9H-purin-2-yl)pyrrolidin-3-yl)acrylamide], the IC50 against EGFR del (PC9) amounted to 3 nM; on EGFR L858R (NCI-H3255) it was 2 nM; in assay [1] it was 9 nM; in assay [2], 273 nM; on EGFR del/T790M (PC9-DRH), 3 nM.

Take `C=CC(=O)N[C@@H]1CN(c2nc(Nc3ccc(N4CCN(C)CC4)cc3)c3ncn(C(C)C)c3n2)C[C@H]1OC` [Example 62, N-((3R,4R)-1-(9-isopropyl-6-((4-(4-methylpiperazin-1-yl)phenyl)amino)-9H-purin-2-yl)-4-methoxypyrrolidin-3-yl)acrylamide]: the IC50 against EGFR del (PC9) stood at 3 nM; on EGFR L858R (NCI-H3255), 1 nM; in assay [1] it was 6 nM.

`C=CC(=O)N[C@@H]1CN(c2nc(Nc3cnn(C)c3)c3ncn(C(C)C)c3n2)C[C@H]1OC` [Example 63, N-((3R,4R)-1-(9-isopropyl-6-((1-methyl-1H-pyrazol-4-yl)amino)-9H-purin-2-yl)-4-methoxypyrrolidin-3-yl)acrylamide]: the 50% inhibitory concentration (IC50) is 14 nM against EGFR del (PC9), 32 nM in assay [1], 551 nM in assay [2] and 5 nM against EGFR del/T790M (PC9-DRH).

Turning to `C=CC(=O)N[C@@H]1CN(c2nc(Nc3cn(C4CCN(C)C4)nc3C)c3ncn(C(C)C)c3n2)C[C@H]1F` (stereo partly drawn) [Example 65, N-((3R,4R)-4-fluoro-1-(9-isopropyl-6-((3-methyl-1-(1-methylpyrrolidin-3-yl)-1H -pyrazol-4-yl)amino)-9H-purin-2-yl)pyrrolidin-3-yl)acrylamide], the IC50 amounted to 11 nM against EGFR del (PC9), 14 nM in assay [1], 1260 nM in assay [2] and 9 nM against EGFR del/T790M (PC9-DRH).

For the compound `C=CC(=O)N[C@@H]1CN(c2nc(Nc3cn(C4CCN(C)C4)nc3OC)c3ncn(CC)c3n2)C[C@H]1F` (stereo partly drawn) [Example 75, N-((3R,4R)-1-(9-ethyl-6-((3-methoxy-1-(1-methylpyrrolidin-3-yl)-1H-pyrazol-4-yl)amino)-9H-purin-2-yl)-4-fluoropyrrolidin-3-yl)acrylamide], the half-inhibitory concentration (IC50) worked out at 1 nM on EGFR L858R (NCI-H3255), 11 nM in assay [1], 64 nM in assay [2] and 2 nM at EGFR del/T790M (PC9-DRH).

In the case of `C=CC(=O)N[C@@H]1CN(c2nc(Nc3cn(C4CCN(C)C4)nc3OC)c3ncn(C)c3n2)C[C@H]1F` (stereo partly drawn) [Example 79, N-((3R,4R)-4-fluoro-1-(6-((3-methoxy-1-(1-methylpyrrolidin-3-yl)-1H-pyrazol-4-yl)amino)-9-methyl-9H-purin-2-yl)pyrrolidin-3-yl)acrylamide], the IC50 at EGFR del (PC9) was found to be 3 nM; at EGFR L858R (NCI-H3255), 3 nM; in assay [1] it was 6 nM; in assay [2], 100 nM; against EGFR del/T790M (PC9-DRH) it was 1 nM.

The term IC50 denotes the concentration that inhibits the measured activity by half. The low end stands for greater potency in that assay, the high end for weaker potency in that assay.
